Assay results reported in patent US8455485B2, “Pyrazolo pyridine derivatives as NADPH oxidase inhibitors” (Genkyotex SA, priority 2008, dated 2013).

Legend:
Type in all cases: cell-based, human
NOX activity = experiment: Amplex Red measurement of extracellular hydrogen peroxide (NOX activity) using DMSO-differentiated HL60 cells; conditions: for Inhibition (%) of NOX activity: Amplex red, DMSO-differentiated HL60 cells, compound concentration not stated
Procedure: Human acute myeloid leukemia cell line HL-60 was cultured in RPMI 1640 (Invitrogen) supplemented with 10% heat-inactivated calf serum, 2 mM glutamine, 100 U/mL penicillin (Sigma), and 100 μg streptomycin (Sigma) at 37° C. under a humidified atmosphere of 5% CO2. HL60 differentiation to the neutrophil phenotype was triggered by adding Me2SO (final concentration 1.25% v/v for 6 days) to the culture medium.
Extracellular hydrogen peroxide was measured using Amplex UltraRed (Molecular Probes). Cells were trypsinized (1× Trypsin-EDTA), collected by centrifugation, and resuspended in HBSS supplemented with 1% glucose. Cells were seeded into black 96-well plates at a density of 50′000 cells in 200 μl testing buffer (HBSS 1% glucose containing 0.005 U/mL horseradish peroxidase (Roche) and 50 μM Amplex Red in the presence or absence of compounds according to the invention. As a control, DPI was included at a final concentration of 10 μM The plates were placed in the fluorescent Optima Fluorescent plate reader and kept at 37° C. during 20 min Fluorescence was measured for […] with excitation and emission wavelengths of 544 nm and 590 nm respectively. NOX activities were expressed as % of the activity in control cells. Residual activity of DPI-treated cells was usually <10%.
The Table 2 below summarizes the percentage of inhibition of NOX activity as measured by Amplex red using DMSO-differentiated HL60 cells as described above: […]

NOX activities [1] = experiment: Nitroblue tetrazolium (NBT) test of intracellular and extracellular superoxide in cells; conditions: DPI at a final concentration of 10 μM
Procedure: Intracellular and extracellular superoxide was measured by a colorimetric technique using a quantitative nitroblue tetrazolium (NBT) test. SOD-inhibitable conversion of NBT to formazan, a fine blue precipitate, in the presence of superoxide anion was measured using Fluostar Optima spectrometer (BMG labtech). Following incubation with appropriate stimuli, cells were trypsinized (1× Trypsin-EDTA), collected by centrifugation, and washed with PBS to remove medium. 5×10^5 cells were plated on 48-well plates and incubated in Hank's balanced salt solution containing 0.5 mg/mL NBT with or without 800 U/mL SOD in the presence or absence of compounds according to the invention. As a control, DPI was included at a final concentration of 10 μM. After 2.5 h, cells were fixed and washed with methanol to remove non reduced NBT. The reduced formazan was then dissolved in 230 μl of 2M potassium hydroxide and in 280 μl of dimethylsulfoxide. The absorption was measured at 630 nm. For calculation, the absorbance at 630 nm was normalized for each individual well. The mean of the four blank values was subtracted from each corrected value for each time point. NOX activities were expressed as % of the activity in control cells. Residual activity of DPI-treated cells was usually <10%.

NOX activities [2] = experiment: Chemiluminescence (luminol) measurement of ROS in cells
Procedure: ROS was measured using the chemiluminescent probe luminol. Cells were cultured and plated as for Amplex Red except that the Amplex Red agent was replaced by 10 μg/mL luminol (Sigma 09235). Light emission was recorded continuously at 37° C. for 60 minutes using the luminescence function of the FluoStar Optima fluorescent plate reader. The mean of the four blank values was subtracted from each corrected value for each time point. NOX activities were expressed as % of the activity in control cells. Residual activity of DPI-treated cells was usually <10%.

NOX activities [3] = experiment: H2DCF-DA (DCF fluorescence) ROS measurement in TGF-β stimulated HUVEC
Procedure: HUVEC are cultured in endothelial basal medium supplemented with hydrocortisone (1 μg/mL, CalbioChem), bovine brain extract (12 μg/mL), gentamicin (50 μg/mL, CalbioChem), amphotericin B (50 ng/mL, CalBioChem EGF (10 ng/mL, and 10% FCS until the fourth passage. When the fifth passage was started, cells were cultured with a lower concentration of FCS (2%) in the absence of EGF, if not indicated otherwise. All experiments were done with cells of the fifth passage. The cells were incubated with OxLDL (oxidized low-density lipoprotein) or its buffer as control for 24 h, before detection of O2^− formation.
HUVEC were plated on coverslips and made quiescent overnight in 0.5% BSA before stimulation with TGF-β. Cells were loaded for 10 minutes with 5 μM CM-H2DCFDA in phenol-red-free medium in the dark and then treated with TGF-β (R&D Systems) in the presence or absence of compounds according to the invention. Cells were then visualized by immunofluorescence microscopy after fixation and staining of the nuclei with DAPI or examined live using confocal microscopy. DCF fluorescence was visualized at an excitation wavelength of 488 nm and emission at 515 to 540 nm. […] For calculation, the absorbance at […] was normalized to absorbance at […] for each individual well. […] NOX activities were expressed as % of the activity in control cells. […]

Compound | Inhibition (%) of NOX activity (NOX activity) | also measured
O=c1c2c(COCc3ccccc3)n(CC3CCCNC3)c(=O)cc2[nH]n1-c1ccccc1Cl (stereo not drawn) [Compound 130, 4-[(benzyloxy)methyl]-2-(2-chlorophenyl)-5-(piperidin-3-ylmethyl)-1H-pyrazolo[4,3-c] pyridine-3,6(2H,5H)-dione] | 80% | 
Cn1c(COCc2cccc(Cl)c2)c2c(=O)n(-c3ccccc3Cl)[nH]c2cc1=O [Compound 139, 4-{[(3-chlorobenzyl)oxy]methyl}-2-(2-chlorophenyl)-5-methyl-1H-pyrazolo[4,3-c] pyridine-3,6(2H,5H)-dione] | 76% | 
COc1cccc(CN(C)Cc2c3c(=O)n(-c4ccccc4Cl)[nH]c3cc(=O)n2C)c1 [Compound 143, 2-(2-chlorophenyl)-4-{[(3-methoxybenzyl) (methyl)amino]methyl}-5-methyl-1H-pyrazolo [4,3-c]pyridine-3,6 (2H,5H)-dione] | 82% | 
CN(Cc1cccnc1)Cc1c2c(=O)n(-c3ccccc3Cl)[nH]c2cc(=O)n1C [Compound 147, 2-(2-chlorophenyl)-5-methyl-4-{[methyl (pyridin-3-ylmethyl)amino]methyl}-1H-pyrazolo[4,3-c] pyridine-3,6(2H,5H)-dione] | 80% | 
COc1cccc(N2CCN(Cc3c4c(=O)n(-c5ccccc5Cl)[nH]c4cc(=O)n3C)CC2)c1 [Compound 163, 2-(2-chlorophenyl)-4-{[4-(3-methoxyphenyl)piperazin-1-yl]methyl}-5-methyl-1H-pyrazolo[4,3-c]pyridine-3,6(2H,5H)-dione] | 80% | 
c1ccc([I+]c2ccccc2)cc1 [DPI, Diphenyl-iodonium] |  | Residual activity of DPI-treated cells (NOX activity as % of the activity in control cells) (NOX activity; Amplex Red, DPI at a final concentration of 10 μM): < 10%; Residual activity of DPI-treated cells (NOX activity as % of the activity in control cells) (NOX activities [1]): < 10%; Residual activity of DPI-treated cells (NOX activity as % of the activity in control cells) (NOX activities [2]): < 10%; Residual activity of DPI-treated cells (NOX activity as % of the activity in control cells) (NOX activities [3]): < 10%
